Values after ≈ are worked out from the molar mass of the structure shown.
Columns and labels:
[1] = system: Staphylococcus aureus S13E; assay type: cell-based
Experimental: (§1) The MIC's were determined using a standard broth micro-dilution assay.

[2] = system: Staphylococcus aureus SA1199B; assay type: cell-based
Experimental: as §1

[3] = system: Entercoccus faecium 180-1; test: broth micro-dilution MIC; assay type: cell-based
Experimental: as §1

Entercoccus faecium 276 = test: broth micro-dilution MIC; assay type: cell-based
Experimental: as §1

[4] = system: Staphylococcus aureus 446; test: broth micro-dilution MIC; assay type: cell-based
Experimental: as §1

[5] = system: Staphylococcus aureus 447; test: broth micro-dilution MIC; assay type: cell-based
Experimental: as §1

[6] = system: Staphylococcus aureus SA1199A; test: broth micro-dilution MIC; assay type: cell-based
Experimental: as §1

[7] = system: Staphylococcus aureus X400; test: broth micro-dilution MIC; assay type: cell-based
Experimental: as §1

[8] = system: Staphylococcus aureus X778; test: broth micro-dilution MIC; assay type: cell-based
Experimental: as §1

[9] = system: Streptococcus pyogenes C203; test: broth micro-dilution MIC; assay type: cell-based
Experimental: as §1

Entercoccus faecium 180 = test: broth micro-dilution MIC; assay type: cell-based; settings: Entercoccus faecium 180
Experimental: (§2) The formula I compounds have in vitro and in vivo activity against Gram-positive pathogenic bacteria. The MIC's were determined using a standard broth micro-dilution assay.

Entercoccus faecium 2041 = test: broth micro-dilution MIC; assay type: cell-based; settings: Entercoccus faecium 2041
Experimental: as §2

[10] = system: Enterococcus gallinarum 245; test: broth micro-dilution MIC; assay type: cell-based; settings: Enterococcus gallinarum 245
Experimental: as §2

[11] = system: Staphylococcus epidermidis 270; test: broth micro-dilution MIC; assay type: cell-based
Experimental: as §2

[12] = system: Staphylococcus haemolyticus 105; test: broth micro-dilution MIC; assay type: cell-based
Experimental: as §2

[13] = system: Streptococcus pneumoniae P1; test: broth micro-dilution MIC; assay type: cell-based
Experimental: as §2

[14] = system: vancomycin-resistant enterococci; test: broth micro-dilution, mean geometric MIC; assay type: cell-based, Enterococcus faecium and Enterococcus faecalis; settings: enterococci, 24-hour incubation
[15] = system: vancomycin-susceptible enterococci; test: broth micro-dilution, mean geometric MIC; assay type: cell-based, Enterococcus faecium and Enterococcus faecalis; settings: enterococci, 24-hour incubation
[16] = system: Staphylococcus aureus SA1199; test: broth micro-dilution MIC; assay type: cell-based
Experimental: as §1

[17] = system: Staphylococcus haemolyticus 415; test: broth micro-dilution MIC; assay type: cell-based
Experimental: as §2

| Compound | MIC [1] | MIC [2] | MIC [3] | MIC (Entercoccus faecium 276) | MIC [4] | MIC [5] | MIC [6] | MIC [7] | MIC [8] | MIC [9] | MIC (Entercoccus faecium 180) | MIC (Entercoccus faecium 2041) | MIC [10] | MIC [11] | MIC [12] | MIC [13] | mean geometric MIC, Vancomycin Resistant Strains [14] | mean geometric MIC, Vancomycin Sensitive Strains [15] | MIC [16] | MIC [17] |
| --- | --- | --- | --- | --- | --- | --- | --- | --- | --- | --- | --- | --- | --- | --- | --- | --- | --- | --- | --- | --- |
| CNC(CC(C)C)C(=O)NC1C(=O)NC(CC(N)=O)C(=O)NC2C(=O)NC3C(=O)NC(C(=O)NC(C(=O)O)c4cc(O)cc(O)c4-c4cc3ccc4O)C(OC3CC(C)(N)C(O)C(C)O3)c3ccc(c(Cl)c3)Oc3cc2cc(c3OC2OC(CO)C(O)C(O)C2OC2CC(C)(NCCc3cccc(Oc4ccccc4)c3)C(O)C(C)O2)Oc2ccc(cc2Cl)C1O (centres unmarked) [Compound 62] | 0.5 µg/mL (≈ 0.28 µM) | 1 µg/mL (≈ 0.559 µM) | ≤ 0.06 µg/mL | 0.5 µg/mL (≈ 0.28 µM) | 2 µg/mL (≈ 1.12 µM) | 0.5 µg/mL (≈ 0.28 µM) | ≤ 0.06 µg/mL | ≤ 0.06 µg/mL | 0.5 µg/mL (≈ 0.28 µM) | ≤ 0.06 µg/mL | 4 µg/mL (≈ 2.24 µM) | ≤ 0.06 µg/mL | 4 µg/mL (≈ 2.24 µM) | 1 µg/mL (≈ 0.559 µM) | 2 µg/mL (≈ 1.12 µM) | ≤ 0.06 µg/mL | 9.5 µg/mL | 0.22 µg/mL |  |  |
| CNC(CC(C)C)C(=O)NC1C(=O)NC(CC(N)=O)C(=O)NC2C(=O)NC3C(=O)NC(C(=O)NC(C(=O)O)c4cc(O)cc(O)c4-c4cc3ccc4O)C(OC3CC(C)(N)C(O)C(C)O3)c3ccc(c(Cl)c3)Oc3cc2cc(c3OC2OC(CO)C(O)C(O)C2OC2CC(C)(NCc3ccc4cc(OC)ccc4c3)C(O)C(C)O2)Oc2ccc(cc2Cl)C1O (centres unmarked) [Compound 65] | 0.5 µg/mL (≈ 0.284 µM) | 2 µg/mL (≈ 1.13 µM) | ≤ 0.06 µg/mL | 0.5 µg/mL (≈ 0.284 µM) | 2 µg/mL (≈ 1.13 µM) | 1 µg/mL (≈ 0.567 µM) | ≤ 0.06 µg/mL |  | 0.5 µg/mL (≈ 0.284 µM) |  | 0.5 µg/mL (≈ 0.284 µM) | ≤ 0.06 µg/mL | 4 µg/mL (≈ 2.27 µM) | 1 µg/mL (≈ 0.567 µM) |  | ≤ 0.06 µg/mL | 2.4 µg/mL | 0.20 µg/mL | 0.5 µg/mL (≈ 0.284 µM) | 4 µg/mL (≈ 2.27 µM) |
| CNC(CC(C)C)C(=O)NC1C(=O)NC(CC(N)=O)C(=O)NC2C(=O)NC3C(=O)NC(C(=O)NC(C(=O)O)c4cc(O)cc(O)c4-c4cc3ccc4O)C(OC3CC(C)(N)C(O)C(C)O3)c3ccc(c(Cl)c3)Oc3cc2cc(c3OC2OC(CO)C(O)C(O)C2OC2CC(C)(NCc3ccc(N4CCCCC4C)cc3)C(O)C(C)O2)Oc2ccc(cc2Cl)C1O (centres unmarked) [Compound 135] | 1 µg/mL (≈ 0.562 µM) |  | ≤ 0.06 µg/mL | 0.5 µg/mL (≈ 0.281 µM) | 1 µg/mL (≈ 0.562 µM) | 1 µg/mL (≈ 0.562 µM) | ≤ 0.06 µg/mL | ≤ 0.06 µg/mL | 1 µg/mL (≈ 0.562 µM) | ≤ 0.06 µg/mL | 1 µg/mL (≈ 0.562 µM) |  | 2 µg/mL (≈ 1.12 µM) | 0.5 µg/mL (≈ 0.281 µM) | 0.5 µg/mL (≈ 0.281 µM) | ≤ 0.06 µg/mL | 4.8 µg/mL | 0.22 µg/mL | 1 µg/mL (≈ 0.562 µM) | 2 µg/mL (≈ 1.12 µM) |
| CCCCCCCCCCCCOc1ccc(CNC2(C)CC(OC3C(Oc4c5cc6cc4Oc4ccc(cc4Cl)C(OC4CC(C)(N)C(O)C(C)O4)C4NC(=O)C(NC(=O)C6NC(=O)C(CC(N)=O)NC(=O)C(NC(=O)C(CC(C)C)NC)C(O)c6ccc(c(Cl)c6)O5)c5ccc(O)c(c5)-c5c(O)cc(O)cc5C(C(=O)O)NC4=O)OC(CO)C(O)C3O)OC(C)C2O)cc1 (centres unmarked) [Compound 10] | 8 µg/mL (≈ 4.29 µM) | 8 µg/mL (≈ 4.29 µM) | 4 µg/mL (≈ 2.14 µM) | 18 µg/mL (≈ 9.64 µM) |  |  | 4 µg/mL (≈ 2.14 µM) |  |  | ≤ 0.06 µg/mL | 8 µg/mL (≈ 4.29 µM) |  | 8 µg/mL (≈ 4.29 µM) |  |  | 0.125 µg/mL (≈ 0.067 µM) |  | 3.5 µg/mL | 8 µg/mL (≈ 4.29 µM) |  |
| CNC(CC(C)C)C(=O)NC1C(=O)NC(CC(N)=O)C(=O)NC2C(=O)NC3C(=O)NC(C(=O)NC(C(=O)O)c4cc(O)cc(O)c4-c4cc3ccc4O)C(OC3CC(C)(N)C(O)C(C)O3)c3ccc(c(Cl)c3)Oc3cc2cc(c3OC2OC(CO)C(O)C(O)C2OC2CC(C)(NCc3ccc(S(=O)(=O)c4ccc(Cl)cc4)cc3)C(O)C(C)O2)Oc2ccc(cc2Cl)C1O (centres unmarked) [Compound 148] | 1 µg/mL (≈ 0.538 µM) | 0.5 µg/mL (≈ 0.269 µM) | ≤ 0.06 µg/mL | ≤ 0.06 µg/mL | 1 µg/mL (≈ 0.538 µM) | 1 µg/mL (≈ 0.538 µM) | ≤ 0.06 µg/mL | ≤ 0.06 µg/mL | 2 µg/mL (≈ 1.08 µM) | ≤ 0.06 µg/mL |  | ≤ 0.06 µg/mL | 2 µg/mL (≈ 1.08 µM) | 0.5 µg/mL (≈ 0.269 µM) | 1 µg/mL (≈ 0.538 µM) | ≤ 0.06 µg/mL | 0.15 µg/mL | 0.052 µg/mL | 2 µg/mL (≈ 1.08 µM) | 2 µg/mL (≈ 1.08 µM) |
| CNC(CC(C)C)C(=O)NC1C(=O)NC(CC(N)=O)C(=O)NC2C(=O)NC3C(=O)NC(C(=O)NC(C(=O)O)c4cc(O)cc(O)c4-c4cc3ccc4O)C(OC3CC(C)(N)C(O)C(C)O3)c3ccc(c(Cl)c3)Oc3cc2cc(c3OC2OC(CO)C(O)C(O)C2OC2CC(C)(NCc3cc(-c4ccccc4)ccc3O)C(O)C(C)O2)Oc2ccc(cc2Cl)C1O (centres unmarked) [Compound 85] | 0.5 µg/mL (≈ 0.282 µM) | 1 µg/mL (≈ 0.563 µM) | ≤ 0.06 µg/mL |  |  |  | ≤ 0.06 µg/mL |  |  | ≤ 0.06 µg/mL | ≤ 0.06 µg/mL | ≤ 0.06 µg/mL | 2 µg/mL (≈ 1.13 µM) | 0.5 µg/mL (≈ 0.282 µM) | 1 µg/mL (≈ 0.563 µM) | ≤ 0.06 µg/mL | 3.4 µg/mL | 0.11 µg/mL | 0.5 µg/mL (≈ 0.282 µM) | 2 µg/mL (≈ 1.13 µM) |
| CNC(CC(C)C)C(=O)NC1C(=O)NC(CC(N)=O)C(=O)NC2C(=O)NC3C(=O)NC(C(=O)NC(C(=O)O)c4cc(O)cc(O)c4-c4cc3ccc4O)C(OC3CC(C)(N)C(O)C(C)O3)c3ccc(c(Cl)c3)Oc3cc2cc(c3OC2OC(CO)C(O)C(O)C2OC2CC(C)(NCCc3ccc(OCc4ccccc4)cc3)C(O)C(C)O2)Oc2ccc(cc2Cl)C1O (centres unmarked) [Compound 68] | ≤ 0.06 µg/mL | 0.5 µg/mL (≈ 0.277 µM) | ≤ 0.06 µg/mL | ≤ 0.06 µg/mL |  |  | ≤ 0.06 µg/mL | ≤ 0.06 µg/mL | ≤ 0.06 µg/mL |  | 2 µg/mL (≈ 1.11 µM) | ≤ 0.06 µg/mL | 4 µg/mL (≈ 2.22 µM) | 2 µg/mL (≈ 1.11 µM) | 2 µg/mL (≈ 1.11 µM) |  | 6.7 µg/mL |  | ≤ 0.06 µg/mL | 4 µg/mL (≈ 2.22 µM) |
